Reference: patent US7112565B2, “Stabilized pharmaceutical composition in lyophilized form” (Astellas Pharma Inc., priority 1999, dated 2006)

Legend:
Type in all cases: physicochemical
[1] = Test Example 1: effect of stabilizer on stability of lyophilized compositions of Compound (II)
Procedure: Effect of Stabilizer in Stabilizing Lyophilized Compositions of Compound (II)
(§1) 10 mg of Compound (II) and, as a stabilizer, 100 mg of lactose or 9 mg of sodium chloride were dissolved completely in 1 ml of water. The resulting solutions were lyophilized and maintained at 70° C. in glass vials. Nine days after, the resulting compositions were tested on their appearance, the residual amount of Compound (II), and others. As a control, used was a solution of Compound (II) without any stabilizers.

[2] = Test Example 2: stability with maltose, sucrose or glucose as stabilizer
Procedure: as §1
The similar tests were conducted in the same manner as in Test Example 1 except that 100 mg of maltose, 50 mg of sucrose or 50 mg of glucose was used as a stabilizer.

[3] = Test Example 3: dependence of stability on the amount of lactose added
Procedure: as §1
Dependence of the Stability of Lyophilized Compositions of Compound (II) upon the Amount of Lactose Added
Tests were carried out in the same manner as in Test example 1 except that 20 mg, 50 mg, 100 mg or 200 mg of lactose were added as a stabilizer. […] Incidentally, it took 15 seconds to reconstitute the compositions in 1 ml of water.

[4] = Test Example 7: dependence of stability on the water content of the composition; details: 10 mg Compound (II) + 50 mg lactose
Procedure: Dependence of the Stability of Lyophilized Compositions of Compound (II) upon the Water Content of the Composition
10 mg of Compound (II) and, as a stabilizer, 50 mg of lactose were dissolved completely in 1 ml of water. The resulting solutions were lyophilized and maintained at 70° C. in glass vials. Nine days after, the resulting compositions were tested on their pH, their water content and the residual amount of Compound (II).

[5] = 10 mg Compound (II) + lactose (100 mg), 0 hours
[6] = 10 mg Compound (II) + lactose (100 mg), after 9 days at 70° C.
[7] = 10 mg Compound (II) + sodium chloride (9 mg), 0 hours
[8] = 10 mg Compound (II) + sodium chloride (9 mg), after 9 days at 70° C.
[9] = 10 mg Compound (II), control: nil stabilizer, 0 hours
[10] = 10 mg Compound (II), control: nil stabilizer, after 9 days at 70° C.
[11] = 10 mg Compound (II) + glucose (50 mg), 0 hours
[12] = 10 mg Compound (II) + glucose (50 mg), after 9 days at 70° C.
[13] = 10 mg Compound (II) + maltose (100 mg), 0 hours
[14] = 10 mg Compound (II) + maltose (100 mg), after 9 days at 70° C.
[15] = 10 mg Compound (II) + sucrose (50 mg), 0 hours
[16] = 10 mg Compound (II) + sucrose (50 mg), after 9 days at 70° C.
[17] = 10 mg Compound (II) + 20 mg lactose, 0 hours
[18] = 10 mg Compound (II) + 20 mg lactose, after 3 months at 40° C. and 75% humidity
[19] = 10 mg Compound (II) + 20 mg lactose, after 9 days at 70° C.
[20] = 10 mg Compound (II) + 50 mg lactose, 0 hours
[21] = 10 mg Compound (II) + 50 mg lactose, after 3 months at 40° C. and 75% humidity
[22] = 10 mg Compound (II) + 50 mg lactose, after 9 days at 70° C.
[23] = 10 mg Compound (II) + 100 mg lactose, 0 hours
[24] = 10 mg Compound (II) + 100 mg lactose, after 3 months at 40° C. and 75% humidity
[25] = 10 mg Compound (II) + 100 mg lactose, after 9 days at 70° C.
[26] = 10 mg Compound (II) + 200 mg lactose, 0 hours
[27] = 10 mg Compound (II) + 200 mg lactose, after 3 months at 40° C. and 75% humidity
[28] = 10 mg Compound (II) + 200 mg lactose, after 9 days at 70° C.
[29] = water content at 0 hours 0.9%, after 9 days at 70° C.
[30] = water content at 0 hours 1.4%, after 9 days at 70° C.
[31] = water content at 0 hours 2.6%, after 9 days at 70° C.
[32] = water content at 0 hours 3.4%, after 9 days at 70° C.
[33] = water content at 0 hours 5.1%, after 9 days at 70° C.

In the case of `CCCCCOc1ccc(-c2cc(-c3ccc(C(=O)NC4CC(O)C(O)NC(=O)C5C(O)C(C)CN5C(=O)C(C(O)CC(N)=O)NC(=O)C(C(O)C(O)c5ccc(O)c(OS(=O)(=O)[O-])c5)NC(=O)C5CC(O)CN5C(=O)C(C(C)O)NC4=O)cc3)no2)cc1.[Na+]` (stereo not shown) [Compound (II)], the Appearance [1, 5] is reported as “White mass”, the Residual amount [1, 5] is reported as 100.0% and the Water content [1, 5] is reported as 1.0%. For the same molecule, the “pH of reconstituted solution in 1 ml of water” value (“pH of reconstituted solution” below) [1, 5] was 6.4, the Appearance [1, 6] was “White mass” and the Residual amount [1, 6] was 99.5%. The “pH of reconstituted solution” value [1, 6] was 6.1, the Appearance [1, 7] was “White mass” and the Residual amount [1, 7] was 100.0%. For the same molecule, the Water content [1, 7] was 0.7%, the “pH of reconstituted solution” value [1, 7] was 6.7 and the Appearance [1, 8] was “White mass”. The Residual amount [1, 8] was 75.9%, the “pH of reconstituted solution” value [1, 8] was 6.3 and the Appearance [1, 9] was “White mass”. For the same molecule, the Residual amount [1, 9] was 100.0%, the Water content [1, 9] was 1.3% and the “pH of reconstituted solution” value [1, 9] was 7.1. For the same molecule, the Appearance [1, 10] was “Slightly yellow mass”, the Residual amount [1, 10] was 8.0% and the “pH of reconstituted solution” value [1, 10] was 2.7. For the same molecule, the “Stability of lyophilized composition (conclusion from Tables 1 and 2)” value ([1]; with lactose, sodium chloride, maltose or sucrose, compared with no stabilizer or other stabilizers) was “significantly stable”, the Appearance [2, 11] was “White melt” and the Residual amount [2, 11] was 100%. For the same molecule, the Water content [2, 11] was 4.3%, the “pH of reconstituted solution” value [2, 11] was 6.9 and the Appearance [2, 12] was “Brown melt”. The Residual amount [2, 12] was 1.1%, the “pH of reconstituted solution” value [2, 12] was 3.6 and the Appearance [2, 13] was “White mass”. For the same molecule, the Residual amount [2, 13] was 100.0%, the Water content [2, 13] was 0.9% and the “pH of reconstituted solution” value [2, 13] was 7.3. The Appearance [2, 14] was “White mass”, the Residual amount [2, 14] was 98.6% and the “pH of reconstituted solution” value [2, 14] was 6.7. The Appearance [2, 15] was “White mass”, the Residual amount [2, 15] was 100.0% and the Water content [2, 15] was 1.1%. For the same molecule, the “pH of reconstituted solution” value [2, 15] was 6.9, the Appearance [2, 16] was “White melt” and the Residual amount [2, 16] was 82.4%. For the same molecule, the “pH of reconstituted solution” value [2, 16] was 7.0, the Appearance [2, 9] was “White mass” and the Residual amount [2, 9] was 100.0%. The Water content [2, 9] was 3.3%, the “pH of reconstituted solution” value [2, 9] was 6.8 and the Appearance [2, 10] was “White mass”. For the same molecule, the Residual amount [2, 10] was under 75.0%, the “pH of reconstituted solution” value [2, 10] was 5.4 and the “Clarity of reconstituted solution in 1 ml of water” value (from here on “Clarity of reconstituted solution”) [3, 17] was “Clear”. For the same molecule, the “Color of reconstituted solution in 1 ml of water” value (“Color of reconstituted solution” below) [3, 17] was “Colorless”, the Residual amount [3, 17] was 100.0% and the Total impurities [3, 17] was 3.44%. The Water content [3, 17] was 1.2%, the “pH of reconstituted solution” value [3, 17] was 6.09 and the “Clarity of reconstituted solution” value [3, 18] was “Clear”. For the same molecule, the “Color of reconstituted solution” value [3, 18] was “Colorless”, the Residual amount [3, 18] was 100.0% and the Total impurities [3, 18] was 3.99%. For the same molecule, the “pH of reconstituted solution” value [3, 18] was 6.57, the “Clarity of reconstituted solution” value [3, 19] was “Not clear” and the “Color of reconstituted solution” value [3, 19] was “White”. For the same molecule, the Residual amount [3, 19] was 88.09%, the Total impurities [3, 19] was 12.3% and the “pH of reconstituted solution” value [3, 19] was 3.03. The “Clarity of reconstituted solution” value [3, 20] was “Clear”, the “Color of reconstituted solution” value [3, 20] was “Colorless” and the Residual amount [3, 20] was 100.0%. For the same molecule, the Total impurities [3, 20] was 3.32%, the Water content [3, 20] was 0.5% and the “pH of reconstituted solution” value [3, 20] was 6.57. The Appearance [3, 21] was “White mass”, the “Clarity of reconstituted solution” value [3, 21] was “Clear” and the “Color of reconstituted solution” value [3, 21] was “Colorless”. The Residual amount [3, 21] was 99.8%, the Total impurities [3, 21] was 4.21% and the “Clarity of reconstituted solution” value [3, 22] was “Clear”. The “Color of reconstituted solution” value [3, 22] was “Colorless”, the Residual amount [3, 22] was 96.7% and the Total impurities [3, 22] was 7.37%. The “pH of reconstituted solution” value [3, 22] was 5.56, the “Clarity of reconstituted solution” value [3, 23] was “Clear” and the “Color of reconstituted solution” value [3, 23] was “Colorless”. The Residual amount [3, 23] was 100.0%, the Total impurities [3, 23] was 3.43% and the Water content [3, 23] was 0.3%. The “pH of reconstituted solution” value [3, 23] was 6.58, the Appearance [3, 24] was “White mass” and the “Color of reconstituted solution” value [3, 24] was “Colorless”. The Residual amount [3, 24] was 99.6%, the Total impurities [3, 24] was 3.96% and the “pH of reconstituted solution” value [3, 24] was 5.80. For the same molecule, the “Clarity of reconstituted solution” value [3, 25] was “Clear”, the “Color of reconstituted solution” value [3, 25] was “Colorless” and the Residual amount [3, 25] was 96.7%. The Total impurities [3, 25] was 7.08%, the “pH of reconstituted solution” value [3, 25] was 6.08 and the “Clarity of reconstituted solution” value [3, 26] was “Clear”. The “Color of reconstituted solution” value [3, 26] was “Colorless”, the Residual amount [3, 26] was 100.0% and the Total impurities [3, 26] was 3.40%. The Water content [3, 26] was 0.3%, the “pH of reconstituted solution” value [3, 26] was 6.78 and the Appearance [3, 27] was “White mass”. The “Clarity of reconstituted solution” value [3, 27] was “Clear”, the “Color of reconstituted solution” value [3, 27] was “Colorless” and the Residual amount [3, 27] was 99.6%. For the same molecule, the Total impurities [3, 27] was 4.35%, the “pH of reconstituted solution” value [3, 27] was 5.36 and the “Clarity of reconstituted solution” value [3, 28] was “Clear”. For the same molecule, the “Color of reconstituted solution” value [3, 28] was “Colorless”, the Residual amount [3, 28] was 96.1% and the Total impurities [3, 28] was 7.30%. The “pH of reconstituted solution” value [3, 28] was 5.70, the “Time to reconstitute the compositions in 1 ml of water” value ([3]; 10 mg Compound (II) + 20, 50, 100 or 200 mg lactose) was 15 s and the “Stability of lyophilized compositions (conclusion from Table 3)” value ([3]; 10 mg of Compound (II) and various amount of lactose) was “no problem in their stability”. For the same molecule, the “pH of reconstituted solution” value ([4]; all water contents 0.9 to 5.1%, 0 hours) was 7.1, the Residual amount [4, 29] was 97.6% and the Water content [4, 29] was 2.5%. For the same molecule, the “pH of reconstituted solution” value [4, 29] was 7.5, the Residual amount [4, 30] was 98.1% and the Water content [4, 30] was 2.9%. For the same molecule, the “pH of reconstituted solution” value [4, 30] was 7.1, the Residual amount [4, 31] was 97.1% and the Water content [4, 31] was 3.6%. The “pH of reconstituted solution” value [4, 31] was 6.8, the Residual amount [4, 32] was 92.7% and the Water content [4, 32] was 4.3%. The “pH of reconstituted solution” value [4, 32] was 6.8, the Residual amount [4, 33] was 18.3% and the Water content [4, 33] was 5.4%. The “pH of reconstituted solution” value [4, 33] was 3.5.
